# Key:
# [1] = system: MCF7; experiment: Cytotoxicity against human MCF7 cells assessed as inhibition of cell growth by MTT assay; format: functional, cell-based
# [2] = system: HepG2; experiment: Cytotoxicity against human HepG2 cells assessed as inhibition of cell growth by MTT assay; format: functional, cell-based
# [3] = system: SMMC-7721; experiment: Cytotoxicity against human SMMC-7721 cells assessed as inhibition of cell growth by MTT assay; format: functional, cell-based
# [4] = system: NCI-H460; experiment: Cytotoxicity against human NCI-H460 cells assessed as inhibition of cell growth by MTT assay; format: functional, cell-based
# [5] = system: EJ; experiment: Cytotoxicity against human EJ cells assessed as inhibition of cell growth by MTT assay; format: functional, cell-based
# [6] = target: Histone deacetylase; experiment: Inhibition of HDAC (unknown origin); format: protein assay, Homo sapiens
# [7] = system: PC-3; experiment: Cytotoxicity against human PC-3 cells assessed as inhibition of cell growth by SRB assay; format: functional, cell-based
# [8] = system: A549; experiment: Cytotoxicity against human A549 cells assessed as inhibition of cell growth by SRB assay; format: functional
# [9] = system: HCT-116; experiment: Cytotoxicity against human HCT-116 cells assessed as inhibition of cell growth by SRB assay; format: functional, cell-based
# [10] = system: Hep 3B2; experiment: Cytotoxicity against human Hep3B cells assessed as inhibition of cell growth by MTT assay; format: functional
# [11] = target: Histone deacetylase (Homo sapiens) (UniProt Q13547+O15379+Q9UBN7+Q92769+Q9UQL6+Q8WUI4+Q9BY41+Q96DB2+P56524+Q9UKV0+Q969S8); experiment: Potency index, ratio of vorinostat IC50 to test compound IC50 for inhibition of HDAC (unknown origin); format: protein assay
# [12] = system: U-937; experiment: Cytotoxicity against human U-937 cells assessed as inhibition of cell growth by MTT assay; format: functional, cell-based
# [13] = system: K562; experiment: Cytotoxicity against human K562 cells assessed as inhibition of cell growth by MTT assay; format: functional, cell-based
# [14] = system: PLC-PRF-5; experiment: Cytotoxicity against human PLC-PRF-5 cells assessed as inhibition of cell growth by MTT assay; format: functional, cell-based
# [15] = system: PC-3; experiment: Cytotoxicity against human PC-3 cells assessed as inhibition of cell growth by MTT assay; format: functional, cell-based
# [16] = system: ES-2; experiment: Cytotoxicity against human ES2 cells assessed as inhibition of cell growth by MTT assay; format: functional, cell-based
# [17] = target: Histone deacetylase 2 (Homo sapiens, UniProt Q92769); experiment: Inhibition of HDAC2 (unknown origin)
# Chain of Histone deacetylase 2 (Q92769 whole entry): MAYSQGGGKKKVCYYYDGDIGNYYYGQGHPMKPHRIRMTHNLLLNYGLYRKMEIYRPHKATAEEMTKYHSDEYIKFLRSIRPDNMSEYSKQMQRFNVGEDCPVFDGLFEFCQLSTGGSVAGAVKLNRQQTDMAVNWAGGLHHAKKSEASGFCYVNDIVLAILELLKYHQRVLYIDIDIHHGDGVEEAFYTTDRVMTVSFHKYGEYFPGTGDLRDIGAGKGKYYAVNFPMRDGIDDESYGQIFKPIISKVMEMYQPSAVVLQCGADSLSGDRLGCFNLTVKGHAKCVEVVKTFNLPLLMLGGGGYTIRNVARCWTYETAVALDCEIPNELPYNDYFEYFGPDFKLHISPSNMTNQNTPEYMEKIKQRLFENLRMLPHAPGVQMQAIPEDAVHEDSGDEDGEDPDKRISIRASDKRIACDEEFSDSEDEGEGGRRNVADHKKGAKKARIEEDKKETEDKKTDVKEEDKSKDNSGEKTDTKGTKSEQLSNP
# [18] = system: ASPC1; experiment: Cytotoxicity against human ASPC1 cells assessed as inhibition of cell growth by SRB assay; format: functional, cell-based
# [19] = system: SW-620; experiment: Cytotoxicity against human SW620 cells assessed as inhibition of cell growth by SRB assay; format: functional, cell-based
# [20] = system: SW-620; experiment: Potency index, ratio of vorinostat IC50 to test compound IC50 for cytotoxicity against human SW620 cells assessed as inhibition of cell growth by SRB assay; format: functional
# [21] = system: PC-3; experiment: Potency index, ratio of vorinostat IC50 to test compound IC50 for cytotoxicity against human PC-3 cells assessed as inhibition of cell growth by SRB assay; format: functional
# [22] = system: ASPC1; experiment: Potency index, ratio of vorinostat IC50 to test compound IC50 for cytotoxicity against human ASPC1 cells assessed as inhibition of cell growth by SRB assay; format: functional
# [23] = system: Ramos; experiment: Cytotoxicity against human Ramos cells assessed as inhibition of cell growth by SRB assay; format: functional, cell-based
# [24] = system: SU-DHL-6; experiment: Cytotoxicity against human SU-DHL-6 cells assessed as inhibition of cell growth by SRB assay; format: functional, cell-based
# [25] = system: SNU-398; experiment: Cytotoxicity against human SNU-398 cells assessed as inhibition of cell growth by SRB assay; format: functional, cell-based
# [26] = system: Jurkat E6.1; experiment: Cytotoxicity against human Jurkat E6.1 cells assessed as inhibition of cell growth by MTT assay; format: functional, cell-based
# [27] = target: Histone deacetylase 8 (Homo sapiens) (UniProt Q9BY41); experiment: Inhibition of HDAC8 (unknown origin) at 25 nM relative to control
# Chain of Histone deacetylase 8 (Homo sapiens) (Q9BY41 whole entry): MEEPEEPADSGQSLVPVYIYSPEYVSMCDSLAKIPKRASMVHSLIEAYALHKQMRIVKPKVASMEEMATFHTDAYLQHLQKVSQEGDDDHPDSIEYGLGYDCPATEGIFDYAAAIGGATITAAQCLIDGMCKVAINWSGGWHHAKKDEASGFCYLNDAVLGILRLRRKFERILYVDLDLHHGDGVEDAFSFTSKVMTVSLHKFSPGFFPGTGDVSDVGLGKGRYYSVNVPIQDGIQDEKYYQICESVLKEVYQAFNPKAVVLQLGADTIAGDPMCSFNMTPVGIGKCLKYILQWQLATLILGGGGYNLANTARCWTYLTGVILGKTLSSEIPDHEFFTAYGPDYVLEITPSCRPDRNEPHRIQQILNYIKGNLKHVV
# [28] = system: MDA-MB-231; experiment: Antitumor activity against human MDA-MB-231 cells xenografted in mouse assessed as reduction on tumor volume at 20 mg/kg, ip relative to control; format: functional; design: scale not given: the % may be the effect or the level left
# [29] = system: HL-60; experiment: Antiproliferative activity against human HL-60 cells assessed as inhibition of cell growth by MTT assay; format: functional, cell-based
# [30] = system: U-937; experiment: Antiproliferative activity against human U-937 cells assessed as inhibition of cell growth by MTT assay; format: functional, cell-based
# [31] = system: NCI-H929; experiment: Antiproliferative activity against human NCI-H929 cells assessed as inhibition of cell growth by MTT assay; format: functional, cell-based
# [32] = system: U-266; experiment: Antiproliferative activity against human U-266 cells assessed as inhibition of cell growth by MTT assay; format: functional, cell-based
# [33] = system: SH-SY5Y; experiment: Antiproliferative activity against human SH-SY5Y cells assessed as inhibition of cell growth by MTT assay; format: functional, cell-based
# [34] = system: MCF7; experiment: Antiproliferative activity against human MCF7 cells assessed as inhibition of cell growth by MTT assay; format: functional, cell-based
# [35] = system: MCF7; experiment: cells; format: functional, cell-based; conditions: Homo sapiens, MCF7, 72 h
# Description: Cytotoxicity against human MCF7 cells assessed as inhibition of cell growth measured after 72 hrs by MTT assay
# [36] = system: U2OS; experiment: cells; format: functional, cell-based; conditions: Homo sapiens, 72 h
# Description: Cytotoxicity against human U2OS cells assessed as inhibition of cell growth measured after 72 hrs by MTT assay
# [37] = system: HepG2; experiment: Cytotoxicity against human HepG2 cells assessed as inhibition of cell growth measured after 72 hrs by MTT assay; format: functional, cell-based; conditions: HepG2, 72 h
# [38] = system: Plasmodium falciparum; experiment: Antimalarial activity against erythrocytic stage of chloroquine susceptible Plasmodium falcipuram 3D7 measured after 3 days by HRP2-ELISA; format: functional, organism-based; conditions: 3D7, 72 h
# [39] = system: Plasmodium falciparum; experiment: Antimalarial activity against erythrocytic stage of chloroquine resistant Plasmodium falcipuram Dd2 measured after 3 days by HRP2-ELISA; format: functional, organism-based; conditions: Dd2, 72 h
# [40] = system: Plasmodium berghei; experiment: Antimalarial activity against hepatic stage of Plasmodium berghei infected in human Huh-7 cells preincubated for 1 hr followed by parasite addition and measured after 48 hrs by bioluminescence assay; format: functional, organism-based
# [41] = Cytotoxicity against human HuT 102 cells assessed as inhibition of cell growth by MTT assay; format: functional, cell-based
# [42] = target: Histone deacetylase 3 (Homo sapiens, UniProt O15379); experiment: Inhibition of HDAC3 (unknown origin)
# Chain of Histone deacetylase 3 (O15379 whole entry): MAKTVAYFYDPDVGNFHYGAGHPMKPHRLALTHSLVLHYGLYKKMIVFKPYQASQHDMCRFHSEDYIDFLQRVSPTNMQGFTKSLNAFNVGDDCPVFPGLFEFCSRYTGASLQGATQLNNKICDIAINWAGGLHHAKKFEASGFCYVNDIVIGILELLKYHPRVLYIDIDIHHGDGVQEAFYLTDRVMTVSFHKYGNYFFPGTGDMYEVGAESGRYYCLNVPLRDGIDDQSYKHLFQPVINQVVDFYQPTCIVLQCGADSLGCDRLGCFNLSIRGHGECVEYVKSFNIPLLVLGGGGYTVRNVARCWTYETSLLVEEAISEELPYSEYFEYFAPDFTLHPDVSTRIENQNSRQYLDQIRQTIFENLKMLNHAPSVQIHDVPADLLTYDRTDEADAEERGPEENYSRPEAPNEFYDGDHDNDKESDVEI
# [43] = target: Histone deacetylase 1 (Homo sapiens, UniProt Q13547); experiment: Inhibition of HDAC1 (unknown origin)
# Chain of Histone deacetylase 1 (Q13547 whole entry): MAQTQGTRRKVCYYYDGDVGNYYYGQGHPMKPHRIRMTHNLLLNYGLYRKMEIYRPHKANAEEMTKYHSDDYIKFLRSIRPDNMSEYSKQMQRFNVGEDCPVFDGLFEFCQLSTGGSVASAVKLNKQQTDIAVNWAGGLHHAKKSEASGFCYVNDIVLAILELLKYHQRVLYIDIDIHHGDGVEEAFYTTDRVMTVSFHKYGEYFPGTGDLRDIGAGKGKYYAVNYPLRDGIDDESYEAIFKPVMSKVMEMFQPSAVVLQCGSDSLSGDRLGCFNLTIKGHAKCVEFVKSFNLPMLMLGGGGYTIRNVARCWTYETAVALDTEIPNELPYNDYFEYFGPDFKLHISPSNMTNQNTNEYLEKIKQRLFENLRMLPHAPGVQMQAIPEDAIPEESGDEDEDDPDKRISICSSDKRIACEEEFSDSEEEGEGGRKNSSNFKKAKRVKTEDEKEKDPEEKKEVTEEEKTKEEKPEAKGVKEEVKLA
# [44] = target: T1, Protein deacetylase HDAC6 (Homo sapiens, UniProt Q9UBN7); experiment: Inhibition of HDAC6 (unknown origin)
# T1 sequence (Q9UBN7 whole entry): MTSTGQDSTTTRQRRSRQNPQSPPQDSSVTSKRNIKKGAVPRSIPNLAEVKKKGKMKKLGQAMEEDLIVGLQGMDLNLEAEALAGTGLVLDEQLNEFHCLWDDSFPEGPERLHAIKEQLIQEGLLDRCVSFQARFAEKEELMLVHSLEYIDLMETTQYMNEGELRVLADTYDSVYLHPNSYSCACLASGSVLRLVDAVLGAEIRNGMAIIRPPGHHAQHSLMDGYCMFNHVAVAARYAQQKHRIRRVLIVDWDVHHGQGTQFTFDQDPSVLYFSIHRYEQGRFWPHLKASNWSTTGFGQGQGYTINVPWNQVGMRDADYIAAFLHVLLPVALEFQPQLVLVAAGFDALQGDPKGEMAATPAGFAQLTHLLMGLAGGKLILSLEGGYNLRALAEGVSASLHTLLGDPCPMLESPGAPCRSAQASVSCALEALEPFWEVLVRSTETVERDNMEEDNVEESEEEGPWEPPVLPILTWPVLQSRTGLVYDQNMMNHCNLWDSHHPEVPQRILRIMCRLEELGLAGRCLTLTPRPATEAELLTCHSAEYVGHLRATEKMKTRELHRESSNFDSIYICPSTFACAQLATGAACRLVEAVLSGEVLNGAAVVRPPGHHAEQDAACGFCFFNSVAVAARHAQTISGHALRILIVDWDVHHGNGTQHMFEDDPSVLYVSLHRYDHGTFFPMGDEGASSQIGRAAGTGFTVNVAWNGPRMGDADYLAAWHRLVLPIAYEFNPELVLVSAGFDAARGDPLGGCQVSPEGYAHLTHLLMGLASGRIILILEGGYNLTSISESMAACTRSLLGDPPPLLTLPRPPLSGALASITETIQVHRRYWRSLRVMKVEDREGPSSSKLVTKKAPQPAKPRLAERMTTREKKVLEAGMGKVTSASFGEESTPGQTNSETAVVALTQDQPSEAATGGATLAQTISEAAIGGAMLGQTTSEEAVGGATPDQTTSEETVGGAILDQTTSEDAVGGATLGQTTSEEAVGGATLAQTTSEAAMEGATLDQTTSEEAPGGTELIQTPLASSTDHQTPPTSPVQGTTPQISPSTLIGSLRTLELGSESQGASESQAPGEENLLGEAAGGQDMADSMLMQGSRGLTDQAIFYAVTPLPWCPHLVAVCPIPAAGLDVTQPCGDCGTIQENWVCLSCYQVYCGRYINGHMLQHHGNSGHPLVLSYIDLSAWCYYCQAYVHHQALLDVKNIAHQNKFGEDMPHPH
# [45] = target: Histone deacetylase 8 (Homo sapiens, UniProt Q9BY41); experiment: Inhibition of HDAC8 (unknown origin)
# Chain of Histone deacetylase 8 (Q9BY41 whole entry): as the sequence (Q9BY41 whole entry) above
structure (smiles),measurement,setting,value
CC(C)=CCC/C(C)=C/CC/C(C)=C/CSc1ccccc1C(=O)NCCC(=O)NO,IC50,[1],4930 nM
same,IC50,[2],4930 nM
same,IC50,[3],4930 nM
same,IC50,[4],4930 nM
same,IC50,[5],4930 nM
Cc1c(CCNS(=O)(=O)c2ccc(/C=C/C=C/C(=O)NO)cc2)c2ccccc2n1C,IC50,[6],3.4 nM
same,GI50,[7],20 nM
same,GI50,[8],20 nM
same,GI50,[9],20 nM
same,GI50,[10],20 nM
same,Ratio IC50,[11],35
CC(C)=CCC/C(C)=C/CC/C(C)=C/CSc1ccccc1C(=O)O [SALIRASIB],IC50,[2],48600 nM
same,IC50,[3],48600 nM
same,IC50,[4],48600 nM
same,IC50,[5],48600 nM
NC(=O)N1N=C(c2ccccc2)CC1c1ccccc1OCC(=O)NO (centres undefined),IC50,[12],18700 nM
same,IC50,[13],18700 nM
same,IC50,[14],18700 nM
same,IC50,[15],18700 nM
same,IC50,[16],18700 nM
same,IC50,[2],18700 nM
O=C(/C=C/c1ccc(CN2C/C(=N\O)c3cc(Cl)ccc32)cc1)NO,IC50,[17],86 nM
same,IC50,[7],470 nM
same,IC50,[18],470 nM
same,IC50,[19],470 nM
same,Ratio IC50,[20],1.8
same,Ratio IC50,[21],1.8
same,Ratio IC50,[22],1.8
CCn1c(C)c(CCNS(=O)(=O)c2ccc(/C=C/C=C/C(=O)NO)cc2)c2ccccc21,IC50,[6],3.3 nM
same,GI50,[7],20 nM
same,GI50,[8],20 nM
same,GI50,[9],20 nM
same,GI50,[10],20 nM
same,Ratio IC50,[11],35
CNC(=O)c1cc(Oc2ccc(NC(=O)Nc3ccc(Cl)c(C(F)(F)F)c3)cc2)ccn1 [SORAFENIB],IC50,[23],1 nM
same,IC50,[24],1 nM
same,IC50,[25],1 nM
Nc1ccnc(NC(=O)[C@@H](N)CCCCC(=O)NO)n1,IC50,[26],20000 nM
same,inhibition,[27],75%
O=C(CCCCCCC(=O)Nc1ccccc1)NO [VORINOSTAT],Activity,[28],40%
CC(C)=CCC/C(C)=C/CC/C(C)=C/CSc1ccccc1C(=O)NCCCC(=O)NO,IC50,[1],4930 nM
same,IC50,[2],4930 nM
same,IC50,[3],4930 nM
same,IC50,[4],4930 nM
same,IC50,[5],4930 nM
O=C(NO)c1cn(C2CCN(C(=O)c3ccc(-c4ccccc4)cc3)CC2)nn1,IC50,[29],1200 nM
same,IC50,[30],1200 nM
same,IC50,[31],1200 nM
same,IC50,[32],1200 nM
same,IC50,[33],1200 nM
same,IC50,[34],1200 nM
CO/N=C1\CN(Cc2ccc(/C=C/C(=O)NO)cc2)c2ccc(F)cc21,IC50,[17],267 nM
same,IC50,[7],470 nM
same,IC50,[18],470 nM
same,IC50,[19],470 nM
same,Ratio IC50,[20],1.8
same,Ratio IC50,[21],1.8
same,Ratio IC50,[22],1.8
O=C(CCCCCCC(=O)Nc1cccc2ccn(S(=O)(=O)c3ccccc3)c12)NO,Activity,[28],68%
CC(C)C[C@H](NC(=O)[C@@H](O)[C@H](N)Cc1ccccc1)C(=O)O [UBENIMEX],IC50,[12],> 500000 nM
same,IC50,[13],> 500000 nM
same,IC50,[14],> 500000 nM
same,IC50,[15],> 500000 nM
same,IC50,[16],> 500000 nM
same,IC50,[2],> 500000 nM
COc1cc(NC(C)CCCCCNC(=O)CCC(=O)NO)c2ncccc2c1 (centres undefined),IC50,[35],1600 nM
same,IC50,[36],3300 nM
same,IC50,[37],1600 nM
same,IC50,[38],300 nM
same,IC50,[39],300 nM
same,IC50,[40],300 nM
O=C(/C=C/c1ccc(S(=O)(=O)Nc2ccccc2C(F)(F)F)cc1)NO,IC50,[29],770 nM
same,IC50,[41],770 nM
O=C(NO)c1cn(C2CCN(C(=O)Cc3ccc4ccccc4c3)CC2)nn1,IC50,[42],1000 nM
same,IC50,[29],1200 nM
same,IC50,[30],1200 nM
same,IC50,[31],1200 nM
same,IC50,[32],1200 nM
same,IC50,[33],1200 nM
same,IC50,[34],1200 nM
same,IC50,[43],1000 nM
same,IC50,[17],1000 nM
same,IC50,[44],1000 nM
same,IC50,[45],1000 nM

# Source: ChEMBL document CHEMBL5230103, “Hydroxamic acid hybrids as the potential anticancer agents: An Overview” (Eur J Med Chem, 2020)
